Measured values published in patent US8772495B2, “5-lipoxygenase-activating protein inhibitor” (Panmira Pharmaceuticals, LLC, priority 2008, dated 2014).
Where “and” joins values, the source holds several entries; their conditions need not be identical. Equal values may be shown once. Marks after values point to notes of the source that are not given here.

Experiments:
[1] = test system: LTB4 in Washed Human Leukocytes; assay: Inhibition of LTB4 in washed human leukocytes; format: cell-based; conditions: individual tests 1-4
[2] = test system: LTB4 in Human Whole Blood; assay: Human blood LTB4 inhibition assay; format: cell-based; conditions: individual tests 1-8
Method: A non-limiting example of such a human blood LTB4 inhibition assay is as follows: Blood was drawn from consenting human volunteers into heparinized tubes and 125 μL aliquots added to wells containing 2.5 μL 50% dimethylsulfoxide (vehicle) or 2.5 μL drug in 50% dimethylsulfoxide. Samples were incubated for 15 minutes at 37° C. 2 μL calcium ionophore A23817 (from a 50 mM dimethylsulfoxide stock diluted just prior to the assay in Hanks balanced salt solution (Invitrogen)) to 1.25 mM) was added, solutions mixed and incubated for 30 minutes at 37° C. Samples were centrifuged at 1,000 rpm (˜200×g) for 10 minutes at 4° C., plasma removed and a 1:100 dilution assayed for LTB4 concentration using ELISA (Assay Designs). Drug concentrations to achieve 50% inhibition (IC50's) of vehicle LTB4 were determined by nonlinear regression (Graphpad Prism) of % inhibition versus log drug concentration.

CYP2C19 = CYP2C19 (Homo sapiens (Human), UniProt P33261); assay: Extracellular cytochrome P450 inhibition (microsomes); format: in vitro ADME; conditions: concentrations up to and exceeding 40 μM
Sequence of CYP2C19 (P33261 whole entry): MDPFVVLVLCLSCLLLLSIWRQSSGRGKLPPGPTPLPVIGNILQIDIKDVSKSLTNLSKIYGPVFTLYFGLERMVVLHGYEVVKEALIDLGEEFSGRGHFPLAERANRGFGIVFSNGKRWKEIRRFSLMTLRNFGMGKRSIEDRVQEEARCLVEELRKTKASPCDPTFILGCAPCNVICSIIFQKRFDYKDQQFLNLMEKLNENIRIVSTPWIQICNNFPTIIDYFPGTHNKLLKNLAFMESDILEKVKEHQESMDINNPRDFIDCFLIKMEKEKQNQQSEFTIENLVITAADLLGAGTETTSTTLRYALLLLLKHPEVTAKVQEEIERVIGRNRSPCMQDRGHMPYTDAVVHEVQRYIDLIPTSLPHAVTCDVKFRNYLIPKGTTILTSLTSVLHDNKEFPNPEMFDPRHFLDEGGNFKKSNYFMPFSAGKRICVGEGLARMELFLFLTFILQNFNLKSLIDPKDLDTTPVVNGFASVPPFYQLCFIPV
From the text: Final solvent concentrations were 1% (v/v) or less.

[3] = Plasma binding (equilibrium dialysis); format: in vitro ADME, Monkey (cynomologus); conditions: monkey plasma, read-out: % Bound (converted)
Method: Experiments were performed using equilibrium dialysis.

[4] = Liquid formulations for oral solutions/suspensions; format: physicochemical
Method: Values of pH reported were estimated based on pH indicating strips. […] Accordingly, provided in certain embodiments herein were formulations having a pH above about 9, above about 10 or of about 10. In certain embodiments, the formulation was buffered at a pH of about 10. All formulations prepared were sonicated for about 10 minutes.

[5] = Oral administration of liquid formulations to rats; parameters: species or system male Spargue-Dawley rats; conditions: Sprague-Dawley, rat, in vivo, solutions of Table 19, male rats
[6] = test system: whole blood ionophore-stimulated leukotriene LTB4; assay: Phase I study: ex vivo ionophore-stimulated LTB4; format: in vivo, human
From the text: Study Design: Single center, double-blind, randomized, placebo-controlled, single ascending dose followed by multiple ascending dose study.
Sample Size: (1) Single Dose Phase: eight (8) subjects (6 active, 2 placebo) per dose level; up to 5 dose levels are planned (a total of 40 subjects if all 5 dose levels are completed); and (2) Multiple Dose Phase: eight (8) subjects (6 active, 2 placebo) per dose level; up to 4 dose levels are planned (a total of 32 subjects if all 4 dose levels are completed).
Formulations: Compound 2 was supplied as an oral powder for reconstitution. Placebo solution matched. […] The placebo differed only in the absence of the active.
The following dosing cohorts were used:
Routes of Administration: All doses were administered orally with approximately 100 mL of water rinse. Subjects were fasted for at least 8 hours prior to dosing and for 2 hours after dosing. For BID dosing in the Multiple Dose Phase, when applicable, subjects were fasted for at least 2 hours prior to the second daily dose.
Plasma concentrations of Compound 1 were determined using a validated LC/MS method. Whole blood ionophore-stimulated leukotriene LTB4 and urinary LTE4 production were assayed by ELISA and mass spectrometry, respectively.
Analysis of Samples: Concentrations of Compound 1 was determined in plasma samples collected from subjects. Similarly, concentrations of LTB4 in plasma and urinary LTE4 were determined in blood and urine samples collected.

[7] = in vivo, po, 250 mg/kg/day
Method: Twenty-four hours following the final drug administration mice were placed into an enclosed Plexiglas chamber and exposed to CO2 for a period of 30-60 seconds or until breathing ceased. They were then removed subject to cervical dislocation and blood taken via a cardiac puncture. Mice were next placed in a supine position and a midline incision made. All organs were inspected and the livers removed by careful dissection. Liver weights were recorded as well as any gross abnormalities.

Compound: CCOc1ccc(-c2ccc(Cn3c(CC(C)(C)C(=O)[O-])c(SC(C)(C)C)c4cc(OCc5ccc(C)cn5)ccc43)cc2)cn1.[Na+] [Compound 2, sodium 3-[3-(tert-butylsulfanyl)-1-[4-(6-ethoxy-pyridin-3-yl)benzyl]-5-(5-methyl-pyridin-2-yl-methoxy)-1H-indol-2-yl]-2,2-dimethylpropionate]
- IC50 [1]: 0.00049 µM and 0.00087 µM and 0.00022 µM and 0.00017 µM
- IC90 [1]: 0.00077 µM and 0.00103 µM and 0.00046 µM and 0.00041 µM
- IC50 [2]: 0.552 µM and 0.645 µM and 0.563 µM and 0.41 µM and 0.642 µM and 0.482 µM and 0.31 µM and 0.444 µM
- IC90 [2]: 3.44 µM and 1.22 µM and 1.55 µM and 0.81 µM and 1.05 µM and 0.79 µM and 0.36 µM and 1.24 µM
- apparent inhibition (CYP2C19): No apparent inhibition
- fraction unbound at 10 μM [3]: 0.003
- Results (appearance of formulation) ([4]; 0.010 M sodium carbonate buffer, 1% v/v Lutrol and 0.05% splenda, pH 10, ~10 mg/mL): Clear solution
- Results (appearance of formulation) ([4]; 0.010 M sodium carbonate buffer, 2% v/v ethanol and 0.05% splenda, pH 10, 10 mg/mL): Clear solution
- Results (appearance of formulation) ([4]; 0.010 M sodium carbonate buffer, 5% v/v Ethanol and 0.05% splenda, pH 10, ~10 mg/mL): Some undissolved solid
- Results (appearance of formulation) ([4]; 0.010 M sodium carbonate buffer, 5% v/v Simple syrup, pH 10, 10 mg/mL): Some undissolved solid
- Results (appearance of formulation) ([4]; 0.010 M sodium carbonate buffer, pH 10, 10 mg/mL): Clear solution
- Results (appearance of formulation) ([4]; 0.5% Methylcellulose, 3.33 mg/mL): Suspension
- Tmax [5]: ≤ 2 h
- tE>50% (time above 50% LTB4 inhibition) ([6]; multiple dose 10 mg, Day 1): 17.5 h
- tE>90% (time above 90% LTB4 inhibition) ([6]; multiple dose 10 mg, Day 1): 0.0 h
- tE>50% (time above 50% LTB4 inhibition) ([6]; multiple dose 10 mg, Day 11): 27.4 h
- tE>90% (time above 90% LTB4 inhibition) ([6]; multiple dose 10 mg, Day 11): 0.0 h
- tE>50% (time above 50% LTB4 inhibition) ([6]; multiple dose 50 mg, Day 1): >23.3 h
- tE>90% (time above 90% LTB4 inhibition) ([6]; multiple dose 50 mg, Day 1): 0.0 h
- tE>50% (time above 50% LTB4 inhibition) ([6]; multiple dose 50 mg, Day 11): 42.4 h
- tE>90% (time above 90% LTB4 inhibition) ([6]; multiple dose 50 mg, Day 11): 10.0 h
- tE>50% (time above 50% LTB4 inhibition) ([6]; multiple dose 150 mg, Day 1): >23.4 h
- tE>90% (time above 90% LTB4 inhibition) ([6]; multiple dose 150 mg, Day 1): 15.1 h
- tE>50% (time above 50% LTB4 inhibition) ([6]; multiple dose 150 mg, Day 11): >72.0 h
- tE>90% (time above 90% LTB4 inhibition) ([6]; multiple dose 150 mg, Day 11): 52.4 h
- tE>50% (time above 50% LTB4 inhibition) ([6]; multiple dose 450 mg, Day 1): >23.7 h
- tE>90% (time above 90% LTB4 inhibition) ([6]; multiple dose 450 mg, Day 1): 17.4 h
- tE>50% (time above 50% LTB4 inhibition) ([6]; multiple dose 450 mg, Day 11): >72.0 h
- tE>90% (time above 90% LTB4 inhibition) ([6]; multiple dose 450 mg, Day 11): 50.4 h
- LTB4 level at t = 24 hrs. ([6]; single dose 50 mg): 37 ± 4.7 % of baseline
- tE>50% (time above 50% LTB4 inhibition) ([6]; single dose 50 mg, Day 1): 32.2 h
- tE>90% (time above 90% LTB4 inhibition) ([6]; single dose 50 mg, Day 1): 0.0 h
- LTB4 level at t = 24 hrs. ([6]; single dose 150 mg): 24 ± 4.4 % of baseline
- tE>50% (time above 50% LTB4 inhibition) ([6]; single dose 150 mg, Day 1): 41.9 h
- tE>90% (time above 90% LTB4 inhibition) ([6]; single dose 150 mg, Day 1): 14.2 h
- LTB4 level at t = 24 hrs. ([6]; single dose 300 mg): 23 ± 8.3 % of baseline
- tE>90% (time above 90% LTB4 inhibition) ([6]; single dose 300 mg, Day 1): 16.1 h
- tE>50% (time above 50% LTB4 inhibition) ([6]; single dose 300 mg, Day 1, estimated): 30^# h
- LTB4 level at t = 24 hrs. ([6]; single dose 600 mg): 1.6 ± 0.98 % of baseline
- tE>50% (time above 50% LTB4 inhibition) ([6]; single dose 600 mg, Day 1): >71.7 h
- tE>90% (time above 90% LTB4 inhibition) ([6]; single dose 600 mg, Day 1): 67.2 h
- LTB4 level at t = 24 hrs. ([6]; single dose 1000 mg): 1.9 ± 0.41 % of baseline
- tE>50% (time above 50% LTB4 inhibition) ([6]; single dose 1000 mg, Day 1): >71.7 h
- tE>90% (time above 90% LTB4 inhibition) ([6]; single dose 1000 mg, Day 1): 42.6 h
- Liver weight ([7]; female, CD-1, mouse, 4 days): 1.2 ± 0.1
- Liver weight (% body weight) ([7]; female, CD-1, mouse, 4 days): 4.4 % body weight
- liver weight change as compared to vehicle control ([7]; female, CD-1, mouse, 4 days): 5%
- necropsy findings ([7]; mouse): no gross abnormalities
